Literature values as cited in US5945417A, “Heterocyclic compounds, their preparation and use” (priority 1995, dated 1999).

Assays:
[1] = test system: metabotropic glutamate receptors; details: literature
[2] = test system: trans ACPD stimulated phosphoinositide hydrolysis; details: literature
mGluR1α = details: 1 mM quisqualate or glutamate; BHK cells expressing mGluR1α
[3] = test system: release of dopamine in the rat brain; details: literature
MCAO model in mice = details: literature
nerve cell cultures = details: literature
control BHK cells = details: 1 mM quisqualate or glutamate

In the case of `Cc1onc(O)c1CC(N)C(=O)O` (stereo not shown) [AMPA], the “action on the metabotropic glutamate receptors” value (from here on “action”) [1] is given as “little effect”.

In the case of `N[C@H](C(=O)O)c1ccc(C(=O)O)c(O)c1` [Compound S-4C3HPG, S-4-carboxy-3-hydroxyphenyl glycine], the “antagonism of trans ACPD stimulated phosphoinositide hydrolysis” value (shortened to “antagonism”) [2] is given as “antagonise trans ACPD stimulated phosphoinositide hydrolysis”.

For `N[C@H](C(=O)O)c1ccc(C(=O)O)cc1` [Compound S-4CPG, S-4-carboxyphenyl glycine], the “antagonism” value [2] is given as “antagonise trans ACPD stimulated phosphoinositide hydrolysis”.

For `N[C@@H](CP(=O)(O)O)C(=O)O` [L-AP3, L-2-amino-3-phosphonopropionic acid], the “action” value [1] is given as “partial agonist”.

In the case of `N[C@@H](CCC(=O)O)C(=O)O` [L-glutamate], the “fold increase over basal Pl-hydrolysis” value (mGluR1α) is given as 6-8 fold.

For `CN[C@H](CC(=O)O)C(=O)O` [NMDA], the “action” value [1] is listed as “little effect”.

In the case of `C[C@@](N)(C(=O)O)c1ccc(C(=O)O)cc1` [S-MCPG, S-alpha methyl4-carboxyphenyl glycine], the “antagonism” value [2] is listed as “antagonise trans ACPD stimulated phosphoinositide hydrolysis”.

In the case of `N[C@@]1(C(=O)O)CC[C@@H](C(=O)O)C1` [Trans-ACPD, trans 1S,3R-1-aminocyclopentane-1,3-dicarboxylicacid], the “action” value [1] is given as “selectively activated”, the “release of dopamine in the rat brain” value [3] is given as “increase release of dopamine in the rat brain” and the “neuroprotection in an MCAO model in mice” value (MCAO model in mice) is given as “neuroprotective agent”. For the same compound, the “inhibition of NMDA induced neurotoxicity” value (nerve cell cultures) was “inhibit NMDA induced neurotoxicity”.

For `NC(C(=O)O)c1cc(O)no1` (stereo not shown) [ibotenate], the “action” value [1] is given as “non-selective agonists”.

In the case of `C=C(C)[C@H]1CN[C@H](C(=O)O)[C@H]1CC(=O)O` [kainate], the “action” value [1] is given as “little effect”.

In the case of `N[C@@H](Cn1oc(=O)[nH]c1=O)C(=O)O` [quisqualate], the “stimulation in control BHK cells” value (control BHK cells) is given as “no stimulation”, the “action” value [1] is given as “non-selective agonists” and the “fold increase over basal Pl-hydrolysis” value (mGluR1α) is given as 6-8 fold.
